Columns and labels:
[1] = tested on: human HaCaT keratinocytes; assay: Antioxidative effect: removal of UV-generated ROS in HaCaT keratinocytes; assay type: cell-based; details: ROS generated by UV in HaCaT; sample 10 μg/mL (Trolox given as (10))
From the text: Antioxidative effect of the ginseng berry extract was investigated by comparing the ability of removing reactive oxygen species (ROS) generated in human HaCaT keratinocytes by ultraviolet (UV) radiation.

[2] = tested on: Cyclooxygenase-2 (COX-2); assay: Inhibition of UV-induced COX-2 biosynthesis in human fibroblasts (western blotting); assay type: cell-based; details: UVA 15 J/cm^2, 2nd day, relative to UV control; sample 10 μg/mL
Procedure: Human fibroblasts were cultured on a 12-well plate incubator to a concentration of 10^5 cells/well. Then, after irradiating UVA at 15 J/cm^2, the medium was replaced by one including the ginseng berry extract of Example 1 (0.1 μg/mL, 1 μg/mL and 10 μg/mL), the ginseng berry saponin concentrate of Example 2 (10 μg/mL), the ginseng root extract of Comparative Example 1 (0.1 μg/mL, 1 μg/mL and 10 μg/mL) or ginsenosides Rg1, Rg2, Rh1 or Re (10 μg/mL). On the 2nd day of culturing, the cells were harvested and the quantity of produced COX-2 was analyzed using western blotting. The result was calculated as a relative value with respect to the control group, which was irradiated with UV without treating with a test substance, using a densitometer.

[3] = tested on: IL1-β; assay: LPS-induced inflammatory factor IL1-β in mouse blood; assay type: in vivo; details: mouse blood about 12 h after LPS, intra-abdominal
Procedure: Based on the experimental result in the cell level, the effect of controlling vascular inflammation of the ginseng berry extract was tested in an animal model. Mice were grouped into a non-treated group, an LPS-induced group, a group treated with the ginseng berry extract of Example 1 (50 μg/mL and 100 μg/mL), a group treated with the ginseng berry saponin concentrate of Example 2 (100 μg/mL), a group treated with the ginseng root extract of Comparative Example 1 (100 μg/mL) and groups treated with ginsenosides Rg1, Rg2, Rh1 or Re (10 μg/mL and 20 μg/mL), with 5 mice per each group.
100 mg of each test substance per kg body weight of mouse, diluted in saline solution (0.9% NaCl), was intra-abdominally injected three times from day 1 through day 3. 2 hours after the injection on day 3, LPS diluted in saline solution (1 μg/mL) was injected intra-abdominally at a concentration of about 4 mg per kg body weight of mouse to induce inflammation by inflammatory factors (PGE2, TNF-α and IL1-β). After approximately 12 hours, the abdomen of the mouse was cut open, and blood was taken from the artery of the heart and stored at […]. The blood was kept at room temperature for 30 minutes and, after centrifuge at 4° C. and 3,000 rpm for 10 minutes, the supernatant was kept at −20° C. Then, the inflammatory factors PGE2, TNF-α and IL1-β were identified by western blotting. Measurement was made twice and the mean value was calculated. The result is shown in Table 4 and FIG. 9 (PGE2 (ng/mL)), Table 5 and FIG. 10 (TNF-α (ng/mL)), and Table 6 and FIG. 11 (IL1-β (pg/mL)).

[4] = tested on: matrix metalloproteinase I (MMP-1); assay: Inhibition of UVB-induced MMP-1 expression in human fibroblasts (ELISA); assay type: cell-based; details: UVB 40 mJ/cm^2, 2nd day, relative to UV control; sample 10 μg/mL
Procedure: Human fibroblasts were cultured on a 12-well plate incubator to a concentration of 10^5 cells/well. Then, after irradiating UVB at 40 mJ/cm^2, the medium was replaced by one including the ginseng berry extract of Example 1 (1 μg/mL and 10 μg/mL), the ginseng berry saponin concentrate of Example 2 (10 μg/mL), the ginseng root extract of Comparative Example 1 (10 μg/mL) or ginsenosides Rg1, Rg2, Rh1 or Re (10 μg/mL). 10 ng/mL TGF-β was used as a positive control substance. On the 2nd day of culturing, the cells were harvested and the quantity of produced matrix metalloproteinase I (MMP-1) was analyzed using ELISA. The result was calculated as a relative value with respect to the control group, which was irradiated with UV without treating with a test substance.

[5] = tested on: Tumor Necrosis Factor α (TNF-α); assay: Inhibition of UV-induced TNF-α biosynthesis in human keratinocytes (ELISA); assay type: cell-based; details: UVB 30 mJ/cm^2, 6-24 hours, relative to UV control; sample 10 μg/mL
Procedure: Human keratinocytes were cultured on a 12-well plate incubator to a concentration of 10^5 cells/well. Then, after irradiating UVB at 30 mJ/cm^2, the medium was replaced by one including the ginseng berry extract of Example 1 (0.1 μg/mL, 1 μg/mL and 10 μg/mL), the ginseng berry saponin concentrate of Example 2 (10 μg/mL), the ginseng root extract of Comparative Example 1 (0.1 μg/mL, 1 μg/mL and 10 μg/mL) or ginsenosides Rg1, Rg2, Rh1 or Re (10 μg/mL). After 6-24 hours of culturing, the cells were harvested and the quantity of TNF-α was analyzed using ELISA (Pharmingen 555212). The result was calculated as a relative value with respect to the control group, which was irradiated with UV without treating with a test substance.

SMILES | Antioxidative effect (%) [1] [%] | COX-2 biosynthesis (%) [2] [%] | IL1-β, Mean ± standard deviation ([3]; group (10 μg/mL)) [pg/mL] | IL1-β, Result 1 ([3]; group (10 μg/mL)) [pg/mL] | IL1-β, Result 2 ([3]; group (10 μg/mL)) [pg/mL] | IL1-β, Mean ± standard deviation ([3]; group (20 μg/mL)) [pg/mL] | IL1-β, Result 1 ([3]; group (20 μg/mL)) [pg/mL] | IL1-β, Result 2 ([3]; group (20 μg/mL)) [pg/mL] | MMP-1 expression (%) [4] [%] | TNF-α biosynthesis (%) [5] [%]
CC(C)=CCC[C@](C)(O)[C@H]1CC[C@]2(C)[C@@H]1[C@H](O)C[C@@H]1[C@@]3(C)CC[C@H](O)C(C)(C)[C@@H]3[C@@H](O[C@@H]3O[C@H](CO)[C@@H](O)[C@H](O)[C@H]3O)C[C@]12C [Rh1] | 3 | 99 | 121.50 ± 7.78 | 116 | 127 | 112.75 ± 6.72 | 108 | 117.5 | 90 | 98
CC(C)=CCC[C@](C)(O[C@@H]1O[C@H](CO)[C@@H](O)[C@H](O)[C@H]1O)[C@H]1CC[C@]2(C)[C@@H]1[C@H](O)C[C@@H]1[C@@]3(C)CC[C@H](O)C(C)(C)[C@@H]3[C@@H](O[C@@H]3O[C@H](CO)[C@@H](O)[C@H](O)[C@H]3O)C[C@]12C [Rg1] | 2 | 95 | 133.50 ± 7.78 | 128 | 139 | 141.50 ± 9.19 | 135 | 148 | 98 | 98
CC(C)=CCC[C@](C)(O)[C@H]1CC[C@]2(C)[C@@H]1[C@H](O)C[C@@H]1[C@@]3(C)CC[C@H](O)C(C)(C)[C@@H]3[C@@H](O[C@@H]3O[C@H](CO)[C@@H](O)[C@H](O)[C@H]3O[C@@H]3O[C@@H](C)[C@H](O)[C@@H](O)[C@H]3O)C[C@]12C [Rg2] | 1 | 97 | 131.50 ± 3.54 | 129 | 134 | 125.00 ± 8.49 | 131 | 119 | 90 | 101

Source: patent US10086028B2, “Method for treating vascular inflammation, improving skin beauty and improving male sexual function using ginseng berry” (AMOREPACIFIC CORPORATION, priority 2007, dated 2018)
